Converted amounts (≈) assume the structure as drawn. Starred links: 1 amine or outer side, 2 acyl side, 3 side chain; linkers in the order of their positions; H or OH if unused. Positions of bridges follow the written chain, without caps; N, C: chain ends. Non-standard residues stand in square brackets, D forms with d. Residues, ends and D or L forms follow the SMILES beside them. *: point of attachment. hTyr(3S-OH,4S-OH,3'-OSO3H) = N[C@H](C(=O)O)[C@H](O)[C@@H](O)c1ccc(O)c(OS(=O)(=O)O)c1; Orn(4R-OH,5R-OH) = O=C([C@H](C[C@@H](O)[C@@H](O)N[*:3])N[*:1])[*:2]; Pro(3S-OH,4S-Me) = C[C@H]1CN[C@H](C(=O)O)[C@H]1O; X1 = CCCCCOc1ccc(-c2cc(-c3ccc(C(=O)*)cc3)no2)cc1; Gln(3R-OH) = NC(=O)C[C@@H](O)[C@H](N)C(=O)O; Hyp = O=C(O)[C@@H]1C[C@@H](O)CN1
Assays:
Assay type in all cases: functional
[1] = system: Magnusiomyces capitatus; assay: Antimicrobial activity against Blastoschizomyces capitatus IHEM 16105 isolate infected OF1 mouse blastoschizomycosis model assessed as liver microbial count per gram of tissue at 80 mg/kg/day, po for 6 days administered 1 hr before microbial challenge
[2] = system: Magnusiomyces capitatus; assay: Antimicrobial activity against Blastoschizomyces capitatus IHEM 16105 isolate infected OF1 mouse blastoschizomycosis model assessed as kidney microbial count per gram of tissue at 80 mg/kg/day, po for 6 days administered 1 hr before microbial challenge
[3] = system: Magnusiomyces capitatus; assay: Antimicrobial activity against Blastoschizomyces capitatus IHEM 5666 isolate infected OF1 mouse blastoschizomycosis model assessed as spleen microbial count per gram of tissue at 80 mg/kg/day, po for 6 days administered 1 hr before microbial challenge
[4] = system: Magnusiomyces capitatus; assay: Antimicrobial activity against Blastoschizomyces capitatus IHEM 5666 isolate infected OF1 mouse blastoschizomycosis model assessed as kidney microbial count per gram of tissue at 80 mg/kg/day, po for 6 days administered 1 hr before microbial challenge
[5] = system: Magnusiomyces capitatus; assay: Antimicrobial activity against Blastoschizomyces capitatus IHEM 16105 isolate infected OF1 mouse blastoschizomycosis model assessed as spleen microbial count per gram of tissue at 80 mg/kg/day, po for 6 days administered 1 hr before microbial challenge
[6] = system: Magnusiomyces capitatus; assay: Antimicrobial activity against Blastoschizomyces capitatus IHEM 5666 isolate infected OF1 mouse blastoschizomycosis model assessed as liver microbial count per gram of tissue at 80 mg/kg/day, po for 6 days administered 1 hr before microbial challenge
[7] = system: Magnusiomyces capitatus; assay: Antimicrobial activity against Blastoschizomyces capitatus IHEM 5666 isolate infected OF1 mouse blastoschizomycosis model assessed as mean survival time at 80 mg/kg/day, po for 6 days administered 1 hr before microbial challenge
[8] = system: Magnusiomyces capitatus; assay: Antimicrobial activity against Blastoschizomyces capitatus IHEM 16105 isolate infected OF1 mouse blastoschizomycosis model assessed as mean survival time at 80 mg/kg/day, po for 6 days administered 1 hr before microbial challenge
[9] = system: Magnusiomyces capitatus; assay: Antimicrobial activity against Blastoschizomyces capitatus IHEM 5666 isolate by microdilution method
[10] = system: Magnusiomyces capitatus; assay: Antimicrobial activity against Blastoschizomyces capitatus IHEM 5666 isolate infected OF1 mouse blastoschizomycosis model assessed as kidney microbial count at 1 mg/kg/day, ip for 6 days administered 1 hr before microbial challenge; conditions: route intraperitoneal
[11] = system: Magnusiomyces capitatus; assay: Antimicrobial activity against Blastoschizomyces capitatus IHEM 5666 isolate infected OF1 mouse blastoschizomycosis model assessed as spleen microbial count at 1 mg/kg/day, ip for 6 days administered 1 hr before microbial challenge; conditions: route intraperitoneal
[12] = system: Magnusiomyces capitatus; assay: Antimicrobial activity against Blastoschizomyces capitatus IHEM 16105 isolate infected OF1 mouse blastoschizomycosis model assessed as spleen microbial count per gram of tissue at 1 mg/kg/day, ip for 6 days administered 1 hr before microbial challenge; conditions: route intraperitoneal
[13] = system: Magnusiomyces capitatus; assay: Antimicrobial activity against Blastoschizomyces capitatus IHEM 16105 isolate infected OF1 mouse blastoschizomycosis model assessed as mean survival time at 1 mg/kg/day, ip for 6 days administered 1 hr before microbial challenge; conditions: route intraperitoneal
[14] = system: Magnusiomyces capitatus; assay: Antimicrobial activity against Blastoschizomyces capitatus IHEM 16105 isolate infected OF1 mouse blastoschizomycosis model assessed as liver microbial count per gram of tissue at 1 mg/kg/day, ip for 6 days administered 1 hr before microbial challenge; conditions: route intraperitoneal
[15] = system: Magnusiomyces capitatus; assay: Antimicrobial activity against Blastoschizomyces capitatus IHEM 16105 isolate infected OF1 mouse blastoschizomycosis model assessed as kidney microbial count per gram of tissue at 1 mg/kg/day, ip for 6 days administered 1 hr before microbial challenge; conditions: route intraperitoneal
[16] = system: Magnusiomyces capitatus; assay: Antimicrobial activity against Blastoschizomyces capitatus IHEM 5666 isolate infected OF1 mouse blastoschizomycosis model assessed as liver microbial count at 1 mg/kg/day, ip for 6 days administered 1 hr before microbial challenge; conditions: route intraperitoneal
[17] = system: Magnusiomyces capitatus; assay: Antimicrobial activity against Blastoschizomyces capitatus IHEM 5666 isolate infected OF1 mouse blastoschizomycosis model assessed as mean survival time at 1 mg/kg/day, ip for 6 days administered 1 hr before microbial challenge; conditions: route intraperitoneal
[18] = system: Magnusiomyces capitatus; assay: Antimicrobial activity against Blastoschizomyces capitatus IHEM 16105 isolate infected OF1 mouse blastoschizomycosis model assessed as liver microbial count per gram of tissue at 60 mg/kg/day, po for 6 days administered 1 hr before microbial challenge
[19] = system: Magnusiomyces capitatus; assay: Antimicrobial activity against Blastoschizomyces capitatus IHEM 16105 isolate infected OF1 mouse blastoschizomycosis model assessed as kidney microbial count per gram of tissue at 60 mg/kg/day, po for 6 days administered 1 hr before microbial challenge
[20] = system: Magnusiomyces capitatus; assay: Antimicrobial activity against Blastoschizomyces capitatus IHEM 16105 isolate infected OF1 mouse blastoschizomycosis model assessed as mean survival time at 60 mg/kg/day, po for 6 days administered 1 hr before microbial challenge
[21] = system: Magnusiomyces capitatus; assay: Antimicrobial activity against Blastoschizomyces capitatus IHEM 5666 isolate infected OF1 mouse blastoschizomycosis model assessed as mean survival time at 60 mg/kg/day, po for 6 days administered 1 hr before microbial challenge
[22] = system: Magnusiomyces capitatus; assay: Antimicrobial activity against Blastoschizomyces capitatus IHEM 5666 isolate infected OF1 mouse blastoschizomycosis model assessed as liver microbial count at 60 mg/kg/day, po for 6 days administered 1 hr before microbial challenge
[23] = system: Magnusiomyces capitatus; assay: Antimicrobial activity against Blastoschizomyces capitatus IHEM 5666 isolate infected OF1 mouse blastoschizomycosis model assessed as kidney microbial count at 60 mg/kg/day, po for 6 days administered 1 hr before microbial challenge
[24] = system: Magnusiomyces capitatus; assay: Antimicrobial activity against Blastoschizomyces capitatus IHEM 16105 isolate by microdilution method
[25] = system: Magnusiomyces capitatus; assay: Antimicrobial activity against Blastoschizomyces capitatus IHEM 16105 isolate infected OF1 mouse blastoschizomycosis model assessed as spleen microbial count per gram of tissue at 60 mg/kg/day, po for 6 days administered 1 hr before microbial challenge
[26] = system: Magnusiomyces capitatus; assay: Antimicrobial activity against Blastoschizomyces capitatus IHEM 5666 isolate infected OF1 mouse blastoschizomycosis model assessed as spleen microbial count at 60 mg/kg/day, po for 6 days administered 1 hr before microbial challenge
[27] = system: Magnusiomyces capitatus; assay: Antimicrobial activity against Blastoschizomyces capitatus IHEM 16105 isolate infected OF1 mouse blastoschizomycosis model assessed as liver microbial count per gram of tissue at 40 mg/kg/day, po for 6 days administered 1 hr before microbial challenge
[28] = system: Magnusiomyces capitatus; assay: Antimicrobial activity against Blastoschizomyces capitatus IHEM 5666 isolate infected OF1 mouse blastoschizomycosis model assessed as kidney microbial count at 40 mg/kg/day, po for 6 days administered 1 hr before microbial challenge
[29] = system: Magnusiomyces capitatus; assay: Antimicrobial activity against Blastoschizomyces capitatus IHEM 16105 isolate infected OF1 mouse blastoschizomycosis model assessed as kidney microbial count per gram of tissue at 40 mg/kg/day, po for 6 days administered 1 hr before microbial challenge
[30] = system: Magnusiomyces capitatus; assay: Antimicrobial activity against Blastoschizomyces capitatus IHEM 16105 isolate infected OF1 mouse blastoschizomycosis model assessed as mean survival time at 40 mg/kg/day, po for 6 days administered 1 hr before microbial challenge
[31] = system: Magnusiomyces capitatus; assay: Antimicrobial activity against Blastoschizomyces capitatus IHEM 5666 isolate infected OF1 mouse blastoschizomycosis model assessed as mean survival time at 40 mg/kg/day, po for 6 days administered 1 hr before microbial challenge
[32] = system: Magnusiomyces capitatus; assay: Antimicrobial activity against Blastoschizomyces capitatus IHEM 16105 isolate infected OF1 mouse blastoschizomycosis model assessed as spleen microbial count per gram of tissue at 40 mg/kg/day, po for 6 days administered 1 hr before microbial challenge
[33] = system: Magnusiomyces capitatus; assay: Antimicrobial activity against Blastoschizomyces capitatus IHEM 5666 isolate infected OF1 mouse blastoschizomycosis model assessed as liver microbial count at 40 mg/kg/day, po for 6 days administered 1 hr before microbial challenge
[34] = system: Magnusiomyces capitatus; assay: Antimicrobial activity against Blastoschizomyces capitatus IHEM 5666 isolate infected OF1 mouse blastoschizomycosis model assessed as spleen microbial count at 40 mg/kg/day, po for 6 days administered 1 hr before microbial challenge
[35] = system: Magnusiomyces capitatus; assay: Antimicrobial activity against Blastoschizomyces capitatus IHEM 5666 isolate infected OF1 mouse blastoschizomycosis model assessed as liver microbial count at 10 mg/kg/day, sc for 6 days administered 1 hr before microbial challenge; conditions: route subcutaneous
[36] = system: Magnusiomyces capitatus; assay: Antimicrobial activity against Blastoschizomyces capitatus IHEM 16105 isolate infected OF1 mouse blastoschizomycosis model assessed as kidney microbial count per gram of tissue at 10 mg/kg/day, sc for 6 days administered 1 hr before microbial challenge; conditions: route subcutaneous
[37] = system: Magnusiomyces capitatus; assay: Antimicrobial activity against Blastoschizomyces capitatus IHEM 16105 isolate infected OF1 mouse blastoschizomycosis model assessed as liver microbial count per gram of tissue at 10 mg/kg/day, sc for 6 days administered 1 hr before microbial challenge; conditions: route subcutaneous
[38] = system: Magnusiomyces capitatus; assay: Antimicrobial activity against Blastoschizomyces capitatus IHEM 5666 isolate infected OF1 mouse blastoschizomycosis model assessed as kidney microbial count at 10 mg/kg/day, sc for 6 days administered 1 hr before microbial challenge; conditions: route subcutaneous
[39] = system: Magnusiomyces capitatus; assay: Antimicrobial activity against Blastoschizomyces capitatus IHEM 5666 isolate infected OF1 mouse blastoschizomycosis model assessed as mean survival time at 10 mg/kg/day, sc for 6 days administered 1 hr before microbial challenge; conditions: route subcutaneous
[40] = system: Magnusiomyces capitatus; assay: Antimicrobial activity against Blastoschizomyces capitatus IHEM 16105 isolate infected OF1 mouse blastoschizomycosis model assessed as mean survival time at 10 mg/kg/day, sc for 6 days administered 1 hr before microbial challenge; conditions: route subcutaneous
[41] = system: Magnusiomyces capitatus; assay: Antimicrobial activity against Blastoschizomyces capitatus IHEM 16105 isolate infected OF1 mouse blastoschizomycosis model assessed as spleen microbial count per gram of tissue at 10 mg/kg/day, sc for 6 days administered 1 hr before microbial challenge; conditions: route subcutaneous
[42] = system: Magnusiomyces capitatus; assay: Antimicrobial activity against Blastoschizomyces capitatus IHEM 5666 isolate infected OF1 mouse blastoschizomycosis model assessed as spleen microbial count at 10 mg/kg/day, sc for 6 days administered 1 hr before microbial challenge; conditions: route subcutaneous

## OC(Cn1cncn1)(Cn1cncn1)c1ccc(F)cc1F [FLUCONAZOLE]
[1]
  log10cfu: 1.37
[2]
  log10cfu: 3.72
[3]
  log10cfu: 2.05
[4]
  log10cfu: 4.31
[5]
  log10cfu: 1.59
[6]
  log10cfu: 2.49
[7]
  MST: 30 days
[8]
  MST: 25.7 days
[9]
  MIC: 16 µg/mL (≈ 52.2 µM)

## C[C@@H]1[C@H](O)[C@@H](C)/C=C/C=C/C=C/C=C/C=C/C=C/C=C/[C@H](O[C@@H]2O[C@H](C)[C@@H](O)[C@H](N)[C@@H]2O)C[C@@H]2O[C@](O)(C[C@@H](O)C[C@@H](O)[C@H](O)CC[C@@H](O)C[C@@H](O)CC(=O)O[C@H]1C)C[C@H](O)[C@H]2C(=O)O [AMPHOTERICIN B]
[10]
  log10cfu: 7.39
[11]
  log10cfu: 4.87
[12]
  log10cfu: 6.02
[13]
  MST: 12.3 days
[14]
  log10cfu: 5.17
[15]
  log10cfu: 7
[16]
  log10cfu: 4.47
[17]
  MST: 12.2 days
[9]
  MIC: 1 µg/mL (≈ 1.08 µM)

## Nc1nc(=O)[nH]cc1F [FLUCYTOSINE]
[18]
  log10cfu: 4.28
[19]
  log10cfu: 7.29
[20]
  MST: 17.7 days
[21]
  MST: 7.6 days
[22]
  log10cfu: 5.69
[23]
  log10cfu: 7.13
[24]
  MIC: 0.25 µg/mL (≈ 1.94 µM)
[25]
  log10cfu: 5.45
[26]
  log10cfu: 6.76
[9]
  MIC: 64 µg/mL (≈ 496 µM)

## C[C@@H](c1ncncc1F)[C@](O)(Cn1cncn1)c1ccc(F)cc1F [VORICONAZOLE]
[27]
  log10cfu: 4.33
[28]
  log10cfu: 6.78
[29]
  log10cfu: 6.98
[30]
  MST: 15.78 days
[24]
  MIC: 1 µg/mL (≈ 2.86 µM)
[31]
  MST: 17.1 days
[32]
  log10cfu: 5.56
[9]
  MIC: 0.25 µg/mL (≈ 0.716 µM)
[33]
  log10cfu: 5.63
[34]
  log10cfu: 4.75

## CCCCCOc1ccc(-c2cc(-c3ccc(C(=O)N[C@H]4C[C@@H](O)[C@@H](O)NC(=O)[C@@H]5[C@@H](O)[C@@H](C)CN5C(=O)[C@H]([C@H](O)CC(N)=O)NC(=O)[C@H]([C@H](O)[C@@H](O)c5ccc(O)c(OS(=O)(=O)O)c5)NC(=O)[C@@H]5C[C@@H](O)CN5C(=O)[C@H]([C@@H](C)O)NC4=O)cc3)no2)cc1 [MICAFUNGIN] (X1-[Orn(4R-OH,5R-OH)]T[Hyp][hTyr(3S-OH,4S-OH,3'-OSO3H)][Gln(3R-OH)][Pro(3S-OH,4S-Me)]; lactam 1-C)
[35]
  log10cfu: 5.32
[36]
  log10cfu: 7.5
[37]
  log10cfu: 5.26
[38]
  log10cfu: 7.52
[39]
  MST: 6.6 days
[24]
  MIC: 64 µg/mL (≈ 50.4 µM)
[40]
  MST: 7.59 days
[41]
  log10cfu: 7.69
[42]
  log10cfu: 7.03
[9]
  MIC: 64 µg/mL (≈ 50.4 µM)
